Reference: patent US8609417B2, “Methods and compositions for stem cell cultures” (The Regents of the University of California, priority 2009, dated 2013)
Entries after “also recorded” stand apart in the source; their conditions may differ.

Columns and labels:
hiPS cells [1] = experiment: Cell growth assay (population doubling time); assay type: cell-based, human; details: hiPS cells on PDL in mTeSR, compound at 5 μM
Description: For the cell growth assay, hiPS or hES cells were plated at 2.5×10^4 cells/cm^2 on plates coated with PDL or Matrigel in mTeSR in the presence of blebbistatin at 5 μM or Y-27632 at 5 μM (PDL) or in the absence of compounds (Matrigel). Cells were harvested at the indicated time points, stained with trypan blue, and counted by the hemocytometer.

hES cells = experiment: Cell-cell contact of hES cells (morphology, cell contact index); assay type: cell-based, human; details: hES cells grown on Matrigel
Description: Rock and myosin II regulate cell-cell interactions in hES cells. To test whether the observed function of RRM signaling in cell-cell contacts in mES cells is conserved in hES cells, H1 cells grown under the feeder-free condition with Matrigel™ and conditioned medium (CM) (FIG. 3A) were treated with C3 exoenzyme. […] Rock-inhibitor treatment also led to cell adhesion defects although it required a higher concentration (20 μM) than that (10 μM) for mES cells (FIG. 3C). Myosin IIA and IIB were colocalized with cell-cell borders in hES cells, which indicates their potential role in cell-cell adhesions (FIG. 3D).

hiPS cells [2] = experiment: Cell viability assay under adherence conditions (trypan blue live cell counting); assay type: cell-based, human
Description: hES or hiPS cells were plated at 1×10^5 cells/well on 12-well plates coated with PDL or Matrigel in mTeSR in the presence or absence of blebbistatin or Y-27632 at various concentrations in triplicates. DMSO (solvent for blebbistatin) was also added in the control condition and found to have no effect on viability. For mES cells, cells were plated under the same condition except for the use of gelatin coating and mES medium. After 24 h, cells were harvested, trypsinized to single cells, and counted by hemocytometer. Cell counting was performed independently by two researchers to confirm the consistency. The same samples were used for TUNEL assay immediately after taking a small fraction of the sample for cell counting.

mES cells = experiment: Cell-cell contact of mES cells (morphology, cell contact index); assay type: cell-based, mouse
From the text: Rho and Rho-associated kinase (Rock) play a role in regulation of cell-cell interactions in pluripotent stem cells. In order to further explore the core mechanism underlying cell-cell adhesions, principle regulators downstream of Rock were examined. Based on functional prescreening non-muscle myosin II was identified as an effector by siRNA-mediated loss of function analysis. Non-muscle Myosin II (myosin II), the two-headed conventional myosin, consists of non-muscle myosin II heavy chain (NMHC) dimers and two sets of myosin light chains (MLCs). […] Among them, all the genes except IIC are expressed in pluripotent stem cells whereas differentiated cells express all three isoforms. […] The specificity and levels of knockdown of the target genes by each siRNA were confirmed by quantitative RT-PCR (QPCR) (FIG. 2). Myosin phosphatase target subunit 1 (MYPT1), a major downstream target of Rock that negatively regulates myosin function through […] of myosin regulatory light chain (MRLC) was examined. MYPT1 was exclusively localized to cell-cell contact sites in mES cells (FIG. 1B). If Rock controls the myosin function through inhibition of MYPT1, depletion of MYPT1 would rescue the intrinsic cell-cell interactions from the robust effect of Y27632 (FIG. 1C).

hiPS cells [3] = experiment: Cell viability under suspension culture; assay type: cell-based, human; details: hPS cells in suspension, 2 days, various concentrations
Description: For the evaluation of cell viability under suspension culture, hES or hiPS cells were plated at 5×10^5 in non-tissue culture-treated 6-well plates with non-conditioned standard hESm containing blebbistatin or Y-27632 at different concentrations in triplicates. After 2 days, cells were harvested with trypsinization and extensive trituration by pipetting, and the number of live cells was manually counted by using hemocytometer and trypan blue staining. The cell survival ratio (%) represents the ratio of the number of live cells to the number of cells plated. The same samples were subjected to TUNEL assay for side by side comparison with the data from cell viability assay.

SMILES | Population doubling time (hiPS cells [1]) [h] | Concentration that disassembled cell-cell junctions (hES cells) [µM] | Number of viable cells (hiPS cells [2]; hiPS cells on PDL, 10 μM, 24 h after plating 1×10^5 cells/well, n=3) | Concentration that disassembled cell-cell junctions (mES cells) [µM] | Effect on survival in suspension culture (hiPS cells [3]) | Effect on cell survival (hiPS cells [2]; hiPS cells on PDL-coated dishes, different concentrations)
C[C@@H](N)[C@H]1CC[C@H](C(=O)Nc2ccncc2)CC1 [Y-27632] | ~32.2 | 20 | 7.2±1.1×10^4 cells | 10 | – | –
O=S(=O)(c1cccc2c(I)cccc12)N1CCCNCC1 [ML-7] | – | – | – | – | did not show a significant effect on survival; also recorded: No difference in the survival rate | No significant increase in cell survival
